According to paper PMC8198750, “Synthesis of Novel Halogenated Heterocycles Based on o-Phenylenediamine and Their Interactions with the Catalytic Subunit of Protein Kinase CK2” (Molecules, 2021):

How the values were obtained:
[1] = RP-HPLC chromatographic hydrophobicity index; format: physicochemical; conditions: C18, 2:1 methanol:20 mM aqueous ammonium formate pH 8; τ = (Tret − T0)/T0
Description: RP-HPLC method, a fast and efficient alternative for standard logD determination in octan-1-ol/water system, was used to assess the hydrophobicity of all synthesized compounds. This method has been successfully used in our laboratory for halogenated benzotriazole derivatives, including the evaluation of the effect of hydrophobicity on their binding to the catalytic subunit of protein kinase CK2 [24, 43].
Chromatographic hydrophobicity index (log(τ)) was determined with the reverse phase HPLC (RP-HPLC). Column: Nova-pak® C18 4 μm, 4.6 × 250 mm. Eluent: 2:1 methanol: 20 mM aqueous ammonium formate (pH = 8) (v/v). Flow: 0.7 mL/min. Detector wavelength: 280 nm. The individual retention times (Tret) were converted to a hydrophobicity scale according to the formula τ = (Tret − T0)/T0. where the retention time of unretained solvent (T0) was estimated to 300 s.

[2] = test system: colorectal carcinoma HCT116; assay: MTT cell viability assay, HCT116; format: cell-based; conditions: Homo sapiens, HCT-116, 72 h, read-out: IC50 HTC116
Description: (§1) The following human cell lines were used in this study: (i) epidermoid carcinoma A-431 (ATCC® CRL-1555), (ii) colorectal carcinoma HCT116 (ATCC® CCL-247), (iii) colorectal carcinoma HCT116p53^−/−, and (iv) normal fibroblasts BJ (ATCC® CRL-2522). The HCT116p53^−/− cell line was a kind gift from professor Bert Vogelstein (John Hopkin’s University, Baltimore, MD, USA). The remaining cell lines were purchased from ATCC (Manassas, VA, USA) or Sigma Aldrich by Merck (Darmstadt, Germany).
(§2) Cells were cultured in Dulbecco’s modified Eagle’s or Roswell Park Memorial Institute (RPMI)-1640 medium supplemented with 10% or 15% fetal bovine serum (Gibco by Thermo Fisher Scientific, Waltham, MA, USA) under standard culture conditions (37 °C, 5% CO2) in a humidified incubator with atmospheric oxygen.
(§3) The viability of cells was assayed by measuring the conversion of MTT (3-(4,5-dimethylthiazol-2-yl)-2,5-diphenyltetrazolium bromide) to the formazan (the rate of this reaction is proportional to the number of surviving cells). Cells were seeded in a 96-well plate at a density of 1500–2500 cells per well, 24 h before treatment. Treatment with tested compounds and cisplatin (0.25–160 µM) was performed for 72 h. MTT stock solution (Sigma-Aldrich) was added at the final concentration 0.5 mg/mL. After 2 h of incubation at 37 °C, water-insoluble formazan was dissolved in a lysis buffer containing 20% SDS, 50% DMF, 2.5% hydrochloric acid, and 2.5% acetic acid. Optical densities were measured at 570 nm using a scanning multi-well spectrophotometer ([…] Detection Platform; Beckman Coulter, Brea, CA, USA).

CK2 = conditions: read-out: IC50 against CK2 / inhibitory activity; cited from earlier work
[3] = test system: phytohemagglutinin-stimulated normal human lymphocytes; set-up: method as in PMID 12660022; conditions: cited from earlier work
[4] = test system: epidermoid carcinoma A-431; assay: MTT cell viability assay, A-431; format: cell-based; conditions: Homo sapiens, 72 h
Description: as §1, §2, §3

hCK2α [5] = biological target: T1, hCK2α (Homo sapiens, UniProt P68400); assay: Inhibitory activity against human CK2α (ADP-Glo kinase assay); format: biochemical; conditions: inhibitor 1 nM–1 mM, triplicate
T1 construct: made in house
Description: The inhibitory effect of 8 selected compounds was monitored based on the luminescence measured with the SpectraMax iD3 Multi-Mode Microplate Reader (Molecular Devices, San Jose, CA, USA), using the previously described method with the aid of ADP-Glo kinase assay (Promega, Walldorf, Germany). Inhibitor concentration varied in the range of 1 nM–1 mM (see Supplementary Figure S38). Each experiment was repeated in triplicate and IC50 values were further estimated globally using the sigmoidal dose-response equation implemented in Origin 9.4 package (www.originlab.com, upgraded 20.07.27).

[6] = test system: colorectal carcinoma HCT116p53−/−; assay: MTT cell viability assay, HCT116p53−/−; format: cell-based; conditions: Homo sapiens, 72 h
Description: as §1, §2, §3

hCK2α [7] = biological target: T1, hCK2α; assay: nanoDSF thermal shift assay (low-volume differential scanning fluorimetry); format: binding; conditions: 10-fold excess of ligand (1:10 protein–ligand), 2.5 μM protein, relative to apo hCK2α, 2% DMSO, pH 8; read-out: ΔTm
Description: Binding affinities of the newly synthesized compounds towards hCK2α were assessed with the low-volume differential scanning fluorimetry (nanoDSF). The shift of the temperature of thermal denaturation in the presence of 10-fold excess of a particular ligand relative to the apo form of hCK2α (ΔTm) can be used as a semi-qualitative measure of the binding affinity or inhibitory activity.
hCK2α was expressed and purified according to the method described previously. Thermal stability of 1:10 protein–ligand complexes was monitored on Prometheus (Nanotemper Technologies, München, Germany) using PR-C002 Prometheus NT.48 Standard Capillaries using temperature ramp of 20 to 80 °C with 1 °C/min heating rate. Temperature-induced variation in ratio fluorescence intensity at 330 and 350 nm was globally analyzed using the procedure described before. All experiments were performed in 25 mM Tris–HCl (pH 8, 0.5 M NaCl) with 2% (v/v) DMSO. Protein was kept in constant 2.5 μM concentration.

normal fibroblasts BJ = assay: MTT cell viability assay, BJ; format: cell-based, human; conditions: Homo sapiens, Fibroblast; MTT, 72 h
Description: as §1, §2, §3

[8] = test system: PC-3 (prostate carcinoma); set-up: method as in PMID 12660022; conditions: cited from earlier work
MCF-7 (breast carcinoma) = test system: MCF-7 (breast carcinoma); set-up: method as in PMID 12660022; conditions: cited from earlier work
[9] = test system: A-431, HCT116, HCT116p53−/−, BJ; assay: MTT cell viability, reference cell lines as a whole; format: cell-based; conditions: Homo sapiens; viability tests, cell line not specified
Description: as §1, §2
as §3, with “MTT stock solution (Sigma-Aldrich) was added at the final concentration 0.5 mg/mL. After 2 h of incubation at 37 °C, water-insoluble formazan was dissolved in a lysis buffer containing 20% SDS, 50% DMF, 2.5% hydrochloric acid, and 2.5% acetic acid.” left out

T1 sequence (P68400 whole entry): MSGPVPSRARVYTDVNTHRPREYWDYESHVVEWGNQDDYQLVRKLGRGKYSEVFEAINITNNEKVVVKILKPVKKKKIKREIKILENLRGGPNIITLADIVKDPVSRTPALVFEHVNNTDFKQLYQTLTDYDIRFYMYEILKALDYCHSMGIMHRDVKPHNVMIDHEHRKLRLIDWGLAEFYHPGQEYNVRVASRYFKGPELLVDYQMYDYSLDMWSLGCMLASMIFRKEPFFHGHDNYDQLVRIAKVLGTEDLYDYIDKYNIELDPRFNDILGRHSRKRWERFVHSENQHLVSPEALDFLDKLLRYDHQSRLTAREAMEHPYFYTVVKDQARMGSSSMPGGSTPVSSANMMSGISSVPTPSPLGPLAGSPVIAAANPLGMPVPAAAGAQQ

SMILES	log(τ) HPLC-derived hydrophobicity index [1]	IC50 [2]	IC50 (CK2)	IC80 [3]	IC50 [4]	IC50 (hCK2α [5])	IC50 [6]	ΔTm at 25 µM (hCK2α [7])	IC50 (normal fibroblasts BJ)	IC80 [8]	IC80 (MCF-7 (breast carcinoma))	IC50 [9]
FC(F)(F)c1nc2cc(Br)c(Br)cc2[nH]1 [Compound 3d, 5,6-dibromo-2-trifluoromethylo-1H-benzimidazole]	0.310	10 ± 2 µM	28 µM	8.7 µM	13 ± 2 µM	15 ± 3 µM	12 ± 2 µM	2.4 ± 0.1 °C	55 ± 6 µM	< 3 µM	< 3 µM	–
Oc1nc2cc(I)c(I)cc2nc1O [Compound 7e]	−0.117	41 ± 4 µM	–	–	94 ± 14 µM	2 ± 1 µM	70 ± 10 µM	4.1 ± 0.1 °C	128 ± 13 µM	–	–	~100 µM
